Test results as given in PMC10253812, “Novel 2-alkythio-4-chloro-N-[imino(heteroaryl)methyl]benzenesulfonamide Derivatives: Synthesis, Molecular Structure, Anticancer Activity and Metabolic Stability” (International Journal of Molecular Sciences, 2023).
Read-outs that look alike come from different tables or passages of the source.

Legend:
[1] = tested on: HeLa (cervical cancer) cell line; assay: MTT cell viability assay, HeLa; assay type: cell-based, human; conditions: for IC50: Homo sapiens, HeLa
Experimental: (§1) Compounds 8–24 were evaluated in vitro for their cytotoxic effect against three human cancer cell lines, i.e., HeLa (cervical cancer), HCT-116 (colon cancer) and MCF-7 (breast cancer), and the non-tumor cell line HaCaT using the MTT assay after 72 h of incubation. The results of tests are presented in Table 1 as IC50, indicating the concentration required for 50% inhibition of cell viability. Compounds 8–10 and 14–18 are not presented in the Table 1 because of their low potency (IC50 > 100 µM).
The cytotoxic activity of 11–13 was determined in a time-dependent manner with the MTT assay (Figure 3).
HeLa cells were treated with 11, 12 and 13 in the concentration range of 0–20 µM. […] After 48 h, the IC50 values for compounds 11, 12 and 13 were 6, 7 and 6 µM, respectively.
(§2) All chemicals, if not stated otherwise, were obtained from Sigma-Aldrich (St. Louis, MO, USA). The MCF-7, HeLa and HaCaT cell lines were purchased from Cell Lines Services (Eppelheim, Germany), and the HCT-116 cell line was purchased from ATCC (ATCC-No: CCL-247). The cells were cultured in Dulbecco’s modified Eagle’s medium (DMEM) supplemented with 10% fetal bovine serum, 2 mM glutamine, 100 units/mL of penicillin and 100 μg/mL of streptomycin. The cultures were maintained in a humidified atmosphere with 5% CO2 at 37 °C, in an incubator (Heraeus, HeraCell).
(§3) Cytotoxicity assay: Cell viability was determined using the MTT (3-(4,5-dimethylthiazol-2-yl)-2,5diphenyltetrazoliumbromide) assay. The cells were seeded in 96-well plates at a density of 5 × 10^3 cells/well and treated for 24, 48 and 72 h with the examined compounds in the concentration range 1–100 μM. Following treatment, MTT (0.5 mg/mL) was added to the medium, and the cells were further incubated for 2 h at 37 °C. the cells were lysed with DMSO, and the absorbance of the formazan solution was measured at 550 nm with a plate reader (Victor, 1420 multilabel counter). The experiment was performed in triplicate. The values are expressed as the mean ± SD of at least three independent experiments.

[2] = tested on: HaCaT (immortalized human keratinocytes); assay: MTT cell viability assay, non-tumor HaCaT; assay type: cell-based; conditions: Homo sapiens, HaCaT, 72 h of incubation, non-tumor cell line
Experimental: as §1
We also performed an assay on the non-tumor cell line HaCaT (immortalized human keratinocytes) to assess if the effect of 11–13 was selective toward HeLa cells or resulted from a more general toxic activity.
as §2, §3

[3] = tested on: HeLa cells; assay: Apoptosis detection by Annexin V-PE and 7-AAD staining, flow cytometry; assay type: cell-based, human; conditions: 5 and 10 µM, 48 h
Experimental: In order to determine whether the anti-proliferative effects of 11, 12 and 13 were associated with their ability to induce apoptosis in HeLa cells, the induction of phosphatidylserine externalization by compounds 11, 12 and 13 was examined by flow cytometric analysis. The cells were treated with 2.5, 5 and 10 µM concentrations of 11, 12 and 13 for 24 and 48 h and stained with Annexin V-PE and 7-AAD. […] After 24 h of treatment, a significant increase in the early apoptotic population of cells was visible starting from the concentration of 5 µM.
Detection of apoptosis by Annexin V-PE and 7-AAD staining: Apoptosis induction was detected with an Annexin V-PE Apoptosis Detection Kit I (BD Biosciences, Belgium) according to the manufacturer’s instructions. The cells were treated with 11–13 (2.5, 5 and 10 µM) for 24 and 48 h. Following treatment, the cells were collected and stained with Annexin V-phycoerythrin (PE) and 7-amino-actinomycin (7-AAD) in Annexin-binding buffer for 15 min at RT in the dark. The acquisition was performed on a FACSCalibur cytometer (BD), and the data were analyzed with Flowing software (version 2.5).

[4] = tested on: caspase activity in HeLa cells; assay: Caspase activity determination (FLICA, FAM-VAD-FMK), flow cytometry; assay type: cell-based, human; conditions: HeLa, 5, 7 and 10 µM, 24 h
Experimental: Apoptosis induction was further determined by examining the effects of 11, 12 and 13 on caspase activation in HeLa cells. Caspase activity induction was determined with the use of the fluorescently labeled caspase inhibitor-FAM-VAD-FMK (a carboxyfluorescein derivative of valylalanylaspartic acid fluoromethyl ketone). The caspase inhibitor binds to active caspases inhibiting their enzymatic activity, thus allowing caspase activity quantification through determining the fluorescent intensity of the bound inhibitor. […] Increased caspase activation was shown by the increased fluorescence of the caspase inhibitor in the cell population, as indicated in Figure 6.
Caspase Activity Determination: Caspase activity was determined with the FLICA Apoptosis Detection Kit (Immunochemistry Technologies) according to the manufacturer’s instructions. The cells were treated with comp. 11, 12 and 13 (5, 7 and 10 µM) for 24 h, after which the cells were collected and suspended in a buffer containing the caspase inhibitor, i.e., a carboxyfluorescein-labeled fluoromethyl ketone peptide. The cells were subsequently incubated for 1 h at 37 °C under 5% CO2 and, next, they were washed with a washing buffer. The fluorescence intensity of fluorescein was determined by flow cytometry (BD FACSCalibur), and caspase activity was determined as the amount of fluorescence emitted from the caspase inhibitors bound to the caspases. The data were analyzed with Flowing software (version 2.5).

[5] = tested on: MCF-7 (breast cancer) cell line; assay: MTT cell viability assay, MCF-7; assay type: cell-based, human; conditions: Homo sapiens, MCF7; for viability at 100 µM: MCF-7, MTT, 72 h, read-out: Viability of cell line in the presence of 100 μM of the tested compound
Experimental: as §1, §2, §3

[6] = tested on: HCT-116 (colon cancer) cell line; assay: MTT cell viability assay, HCT-116; assay type: cell-based; conditions: Homo sapiens, 72 h of incubation
Experimental: as §1, §2, §3

[7] = MTT assay, 72 h of incubation, read-out: IC50 HeLa
[8] = MTT, 24 h of treatment, 0–20 µM

Row | IC50 [1, 7] | IC50 HeLa after 24 h [1, 8] | IC50 ([5]; MTT assay, 72 h of incubation) | IC50 [6] | IC50 ([1]; MTT, 24 h of treatment, 0–20 µM, read-out: IC50 HeLa after 24 h) | SMILES | IC50 [2] | cells in the late stage of apoptosis [3] | caspase activity induction [4] | viability at 100 µM [5]
1 | 6 ± 0.1 µM | not reached | > 100 µM | 11 ± 0.3 µM |  | Cc1cc(S(=O)(=O)NC(=N)n2ccn(C)c2=S)c(SCc2ccc(Cl)cc2)cc1Cl [Compound 11, 4-Chloro-N-[imino(3-methyl-2-thioxo-2,3-dihydro-1H-imidazol-1-yl)methyl]-5-methyl-2-(4-chlorobenzylthio)benzenesulfonamide] | 18 ± 0.5 µM | significant increase in cells in the late stage of apoptosis | induced caspase activity in HeLa cells in a dose-dependent manner | 
2 | 7 ± 0.3 µM | not reached |  | > 100 µM |  | Cc1cc(S(=O)(=O)NC(=N)n2ccn(C)c2=S)c(SCc2cc3c(cc2Cl)OCO3)cc1Cl [Compound 12] | 20 ± 1 µM | significant increase in cells in the late stage of apoptosis | induced caspase activity in HeLa cells in a dose-dependent manner | 100%
3 | 6 ± 0.1 µM |  |  | 73 ± 2 µM | 18 µM | Cc1cc(S(=O)(=O)NC(=N)n2ccn(C)c2=S)c(SCc2cccc3ccccc23)cc1Cl [Compound 13, 4-Chloro-N-[imino(3-methyl-2-thioxo-2,3-dihydro-1H-imidazol-1-yl)methyl]-5-methyl-2-(naphthalen-1-ylmethylthio)benzenesulfonamide] | 18 ± 0.5 µM | significant increase in cells in the late stage of apoptosis | induced caspase activity in HeLa cells in a dose-dependent manner | 100%
